Laboratory results taken from patent US12636312B2, “Gold clusters (AuCs), composition and method for treatment of liver cirrhosis” (Wuhan Vast Conduct Science Foundation CO., LTD., priority 2020, dated 2026).

Assays:
[1] = test system: cirrhotic model mice; experiment: Serum biochemical testing (ALT, AST, TBil, MAO, ALB) in CCl4-induced liver cirrhosis model mice, Embodiment 3; assay type: in vivo
Description: (§1) 120 SPF male C57BL/6N mice, 6-8 weeks old and 16-20 g body weight, were purchased from Beijing Huafukang Experimental Animal Technology Co., Ltd. (production license number: SOCK (Jing) 2019-0008). According to body weight, they were randomly divided into 12 groups (n=10): blank control group, model group, positive control group, A-01 low dose group, A-01 high dose group, A-02 low dose group, A-02 high dose group, B-01 low-dose group, B-01 high-dose group, B-02 low-dose group, B-02 high-dose group, and C high-dose group.
(§2) Except for the blank control group, liver cirrhosis model of mice in other groups was prepared by the method of carbon tetrachloride (CCl4)-induction treatment. The modeling protocol was as follows: (1) Each mouse was intraperitoneally injected with 10% CCl4 (diluted with olive oil) at 7 μL/g body weight, twice a week for a total of 8 weeks; mice of the blank control group were injected intraperitoneally with the same amount of olive oil solvent. (2) from the 6th week, two mice were selected and killed 48 hours after the last injection every week. The appearance of the liver was observed. After the appearance was in line with the characteristics of cirrhosis (the 8th week), the liver tissue was fixed with formalin. HE staining and Masson staining were used to evaluate the model of cirrhosis.
After the successful modeling, the mice in the positive control group were given intragastrically 25 mg/kg sorafenib; the mice in the low or high dose groups of A-01, A-02, B-01 and B-02 were given by intraperitoneal injection at 2.5 or 10 mg/kg respectively of the corresponding test material; the mice in the C high dose group were given by intraperitoneal injection at a dose of 40 mg/kg of C; and the mice in the blank control group and the model group were given intraperitoneally physiological saline at 10 mL/kg. The administration was once a day for 20 consecutive days.
After the administration was completed, blood was collected from mouse orbit, and sera were obtained for biochemical testing of albumin (ALbumin, ALB), total bilirubin (TBil), alanine Alanine aminotransferase (ALT), aspartate aminotransferase (AST) and monoamine oxidase (MAO) using Zhongsheng Beikong Kit and biochemical analyzer (Siemens). The detection method was performed in strict accordance with the kit instructions.

[2] = test system: cirrhotic model mice; experiment: Pathological examination of liver (HE staining, Masson staining) in CCl4-induced liver cirrhosis model mice, Embodiment 3; assay type: in vivo, C57BL/6N mice; conditions: 25 mg/kg intragastrically 20 days
Description: as §1
as §2, with “cirrhosis. […]” for “cirrhosis.”

[3] = 25 mg/kg intragastrically 20 days
[4] = 25 mg/kg intragastrically 20 days, listed as positive control
[5] = 25 mg/kg intragastrically 20 days, listed as positive control drug

CNC(=O)c1cc(Oc2ccc(NC(=O)Nc3ccc(Cl)c(C(F)(F)F)c3)cc2)ccn1 [sorafenib, Sorafenib]
serum ALT level versus model group [1, 3]: significantly reduced | serum AST level versus model group [1, 3]: significantly reduced | serum TBIL level versus model group [1, 3]: significantly reduced | serum ALB level versus model group [1, 4]: did not significantly affect | serum MAO activity versus model group [1, 4]: did not decrease | serum ALB level versus model group [1, 5]: no significant effect | serum MAO activity versus model group [1, 5]: no effect | serum MAO activity ([1]; 25 mg/kg intragastrically 20 days, model group 21.5±0.7): 21.3±2.1 U/L | serum AST activity ([1]; 25 mg/kg intragastrically 20 days, model group 192.0±11.3): 165.5±11.6 U/L | serum ALT activity ([1]; 25 mg/kg intragastrically once a day for 20 days, model group 188.5±4.9): 42.8±5.4 U/L | HE staining: liver damages versus model group [2]: significant reduction of liver damages
